Experiments:
[1] = test system: MDA-MB-231 human breast tumor with lung metastasis; conditions: NSG mouse
Description: The anticancer efficacy of the nanoparticles has been evaluated in a NSG mouse model bearing MDA-MB-231 human breast tumor with lung metastasis. […] A thorough characterization of lung metastasis has been performed with a combination of IVIS imaging, H&E staining, and machine learning.

[2] = Balb/c mice; compared to saline control
Protocol: In order to detect if mice experienced any behavioral changes under treatments, open field tests and pain sensitivity behavioral tests were performed.

| distance traveled in open field test [2] | Structure (SMILES) | lung metastasis ([1]; MDA-MB-231, IVIS imaging, H&E staining, machine learning) | primary tumor inhibition efficacy ([1]; MDA-MB-231 tumor) |
| --- | --- | --- | --- |
|  | CC(=O)O[C@H]1C(=O)[C@@]2(C)[C@H]([C@H](OC(=O)c3ccccc3)[C@]3(O)C[C@H](OC(=O)[C@H](O)[C@@H](NC(=O)c4ccccc4)c4ccccc4)C(C)=C1C3(C)C)[C@]1(OC(C)=O)CO[C@@H]1C[C@@H]2O [paclitaxel free drug, paclitaxel] | shows no therapeutic effect to metastasis, and even induce more metastasis | inhibits primary tumor |
| significant attenuation in the distance | COc1cccc2c1C(=O)c1c(O)c3c(c(O)c1C2=O)C[C@@](O)(C(=O)CO)C[C@@H]3O[C@H]1C[C@H](N)[C@H](O)[C@H](C)O1 [doxorubicin] |  |  |
